Square brackets hold non-standard residues; d marks the D form. Peptide text beside a SMILES is read from it.
Target: human APJ (Homo sapiens, UniProt P35414)
Test: cell-based
Conditions: CHO-K1, 1.5 h, read-out: Percent of Apelin-13 Control Activity
Procedure: The effect of the peptides on activation of Apelin Receptor (APJ) can be assessed using an assay to monitor β-Arrestin recruitment in cultured cells overexpressing APJ such as CHO-K1, derived from Chinese hamster ovary. β-Arrestin recruitment assays were performed by Eurofins-DiscoverX (Fremont, Calif.) using CHO-K1 AGTRL1 β-Arrestin cell line (co-expressing ProLink tagged human APJ and Enzyme Acceptor tagged β-Arrestin) and PathHunter detection kit. Peptides were initially prepared either as 10 mM stock in DMSO and used at a final concentration of 10 μM (0.1% DMSO). CHO-K1 AGTRL1 β-Arrestin cells were seed onto 384-well plates in standard medium. […] Following 90 min. incubation at 37° C., β-Arrestin recruitment in response to various treatments was quantified using a chemiluminescent complementation reporter assay to measure association of tagged human APJ (ProLink tag) and tagged β-Arrestin (Enzyme Acceptor tag).

Chain of human APJ (P32121 whole entry partner, one chain of several): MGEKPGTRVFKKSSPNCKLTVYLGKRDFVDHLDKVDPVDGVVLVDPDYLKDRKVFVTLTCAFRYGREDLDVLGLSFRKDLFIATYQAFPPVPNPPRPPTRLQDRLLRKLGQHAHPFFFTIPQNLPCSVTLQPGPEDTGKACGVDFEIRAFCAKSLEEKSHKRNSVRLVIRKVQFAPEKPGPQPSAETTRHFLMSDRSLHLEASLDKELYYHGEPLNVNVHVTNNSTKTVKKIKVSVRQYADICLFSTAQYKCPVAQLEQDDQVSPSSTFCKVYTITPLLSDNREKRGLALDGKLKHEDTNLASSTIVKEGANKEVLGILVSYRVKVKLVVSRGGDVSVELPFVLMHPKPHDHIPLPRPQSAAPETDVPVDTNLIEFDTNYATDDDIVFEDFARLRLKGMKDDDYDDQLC

Molecule | Emax at 10 µM [%]
COCCOCCOCCOCCOCCOCCOCCOCCOCCOCCOCCOCCC(=O)N[C@@H](CCCCN)C(=O)N[C@@H](CCCNC(=N)N)C(=O)N[C@@H](CCCNC(=N)N)C(=O)N[C@@H](CCSC)C(=O)N[C@@H](CCSC)C(=O)NCC(=O)N[C@@H](CCSC)C(=O)N[C@H](C(=O)N[C@@H](Cc1ccccc1)C(=O)N[C@@H](CCC(N)=O)C(=O)N[C@@H](CO)C(=O)N[C@@H](CC(C)C)C(=O)N[C@@H](CS)C(=O)NCC(=O)N[C@H](C)C(=O)O)C(C)C [compound 36] | 63
COCCOCCOCCOCCOCCOCCOCCOCCOCCOCCOCCOCCC(=O)N[C@@H](CCCCN)C(=O)N[C@@H](CCCNC(=N)N)C(=O)N[C@@H](CCCNC(=N)N)C(=O)N[C@@H](CC(C)C)C(=O)N[C@@H](CC(C)C)C(=O)NCC(=O)N[C@@H](CC(C)C)C(=O)N[C@H](C(=O)N[C@@H](Cc1ccccc1)C(=O)N[C@@H](CCC(N)=O)C(=O)N[C@@H](CO)C(=O)N[C@@H](CC(C)C)C(=O)N[C@@H](CS)C(=O)NCC(=O)N[C@H](C)C(=O)O)C(C)C [compound 37] | 12

Target: T1, Apelin Receptor (APJ) (Homo sapiens, UniProt P35414)
T1 construct: host or cells: CHO-K1 AGTRL1 Gi cells
T1 sequence (P35414 1-380): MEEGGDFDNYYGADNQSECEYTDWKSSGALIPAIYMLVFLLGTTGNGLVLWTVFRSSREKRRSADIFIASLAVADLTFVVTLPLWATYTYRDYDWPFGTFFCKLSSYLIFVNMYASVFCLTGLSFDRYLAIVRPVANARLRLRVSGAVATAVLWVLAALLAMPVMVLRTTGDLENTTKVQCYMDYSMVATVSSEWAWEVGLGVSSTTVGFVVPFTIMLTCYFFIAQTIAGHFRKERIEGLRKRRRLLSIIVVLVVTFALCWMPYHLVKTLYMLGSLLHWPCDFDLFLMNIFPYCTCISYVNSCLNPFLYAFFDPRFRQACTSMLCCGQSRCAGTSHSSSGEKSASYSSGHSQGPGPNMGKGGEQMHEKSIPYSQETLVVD
Test: cell-based
Conditions: CHO-K1, 0.5 h, read-out: Percent of Pyr-Apelin-13 Control Activity
Procedure: Peptides were initially prepared as 30 mM stock in DMSO and diluted to 3 mM in H2O or directly as 3 mM stock in H2O; used at a final concentration of 10 μM (0-0.1% DMSO).

Molecule | Emax at 10 µM [%]
COCCOCCOCCOCCOCCOCCOCCOCCOCCOCCOCCOCCC(=O)N[C@@H](CCCCN)C(=O)N[C@@H](CCCNC(=N)N)C(=O)N[C@@H](CCCNC(=N)N)C(=O)N[C@@H](CCSC)C(=O)N[C@@H](CCSC)C(=O)NCC(=O)N[C@@H](CCSC)C(=O)N[C@H](C(=O)N[C@@H](Cc1ccccc1)C(=O)N[C@@H](CCC(N)=O)C(=O)N[C@@H](CO)C(=O)N[C@@H](CC(C)C)C(=O)N[C@@H](CS)C(=O)NCC(=O)N[C@H](C)C(=O)O)C(C)C [compound 36] | 101
COCCOCCOCCOCCOCCOCCOCCOCCOCCOCCOCCOCCC(=O)N[C@@H](CCCCN)C(=O)N[C@@H](CCCNC(=N)N)C(=O)N[C@@H](CCCNC(=N)N)C(=O)N[C@@H](CC(C)C)C(=O)N[C@@H](CC(C)C)C(=O)NCC(=O)N[C@@H](CC(C)C)C(=O)N[C@H](C(=O)N[C@@H](Cc1ccccc1)C(=O)N[C@@H](CCC(N)=O)C(=O)N[C@@H](CO)C(=O)N[C@@H](CC(C)C)C(=O)N[C@@H](CS)C(=O)NCC(=O)N[C@H](C)C(=O)O)C(C)C [compound 37] | 53

System: LPS-induced acute lung injury mouse model
Test: LPS-induced acute lung injury model in mouse (Example 6)
Format: in vivo, mice
Conditions: histopathology, 0-5 scale, 24 h after LPS, 5 mg/kg i.p.
Procedure: The effect of the peptides of the current invention on acute lung injury can be assessed in an LPS-induced acute lung injury mouse model by monitoring outcomes such as lung weight, fluid accumulation, cytokine secretion in blood or bronchoalveolar lavage fluid (BALF), neutrophil infiltration into lung tissues, and assessment of acute lung injury score by histopathology. Acute lung injury was induced in male C57BL/6 mice (6 to 8 weeks old) by intratracheal administration of 40 μL lipopolysaccharide (LPS) (Sigma Aldrich, St. Louis, Mo.) in PBS at 5 mg/kg. Control animals received intratracheal PBS alone. […] Treatments were administered 1 h prior to LPS for animals designated for sacrifice at 4 h after LPS, or at both 1 h prior to and 6 h after LPS for animals designated for sacrifice at 24 h after LPS. At 4 or 24 hours post LPS administration, tissues were harvested. Lungs were weighed, flushed with Hanks Buffer to provide bronchoalveolar lavage fluid (BALF). Lungs were fixed in 10% neutral buffered formalin (NBF) for histopathology. Tissue slides were stained with hematoxylin and eosin (H&E) and evaluated and scored with light microscopy of 5 representative microscopic fields (100× magnification) scoring on a 0-5 scale using standard methods (Matute-Bello G et al 2011. An Official American Thoracic Society Workshop Report: Features and Measurements of Experimental Acute Lung Injury in Animals. Am J Respir Cell Mol Biol 44:725-38). The average score for five fields was calculated for each animal. Levels of pro-inflammatory cytokines in BALF were determined using a meso scale discovery (MSD) system. Data for test peptides were compared to the vehicle control group. Lung weights were normalized to body weight.

Molecule | Mean (SEM) Alveolar Neutrophil Infiltration Score | Mean (SEM) Interstitial Neutrophil Infiltration Score
(PEG12)KRRMMGMVFQSLCG(dA) (KRRMMGMVFQSLCGA; N-terminal PEG12; C-terminal D-alanine; (1)..(1) PEG12; (15)..(15) D-Ala) [SEQ ID NO: 36] | 1.98 (0.18) | 1.60 (0.14)

Same assay, conditions: histopathology, 24 h after LPS, 5 mg/kg i.p.

Molecule | Mean (SEM) Composite Lung Injury Score
(PEG12)KRRMMGMVFQSLCG(dA) (KRRMMGMVFQSLCGA; N-terminal PEG12; C-terminal D-alanine; (1)..(1) PEG12; (15)..(15) D-Ala) [SEQ ID NO: 36] | 3.65 (0.28)

System: not listed separately
Test: in vitro
Conditions: human, pooled human plasma
Procedure: The metabolic stability of the peptides can be assessed in vitro by incubation in plasma and determination of the amount of peptide remaining over time. Peptides (50 μM) were incubated in pooled plasma from mice, monkeys, and humans at 37° C. Samples were removed at intervals up to 3 hours and immediately analyzed for the concentration of intact peptide by LC/MS/MS. The percent of peptide remaining in plasma at each time point was calculated relative to the initial peak area.

Molecule | remaining at 0.5 h, 50 μM [%]
CSCC[C@H](NC(=O)CNC(=O)[C@H](CCSC)NC(=O)[C@H](CCSC)NC(=O)[C@H](CCCNC(=N)N)NC(=O)[C@H](CCCNC(=N)N)NC(=O)[C@@H](N)CCSC)C(=O)N[C@H](C(=O)N[C@@H](Cc1ccccc1)C(=O)N[C@@H](CCC(N)=O)C(=O)N[C@@H](CS)C(=O)N[C@@H](CC(C)C)C(=O)N[C@@H](CS)C(=O)NCC(=O)N[C@@H](CC(C)C)C(=O)O)C(C)C [compound 7] | 52.4
CC[C@H](C)[C@H](NC(=O)[C@H](CCCNC(=N)N)NC(=O)[C@@H](N)CCCNC(=N)N)C(=O)N[C@H](C(=O)N[C@H](C)C(=O)N[C@H](C(=O)N[C@H](C(=O)N[C@@H](Cc1ccccc1)C(=O)N[C@@H](CCC(N)=O)C(=O)N[C@@H](CS)C(=O)N[C@@H](CC(C)C)C(=O)N[C@@H](CS)C(=O)N[C@H](C)C(=O)N[C@@H](CC(C)C)C(=O)O)C(C)C)[C@@H](C)CC)[C@@H](C)CC [compound 9] (H-RRII[dA]IVFQCLC[dA]L-OH) | 92.5
CSCC[C@H](NC(=O)CNC(=O)[C@H](CCSC)NC(=O)[C@@H](N)CCSC)C(=O)N[C@H](C(=O)N[C@@H](Cc1ccccc1)C(=O)O)C(C)C [compound 45] (H-MMGMVF-OH) | 90.8
CSCC[C@H](NC(=O)CNC(=O)[C@H](CCSC)NC(=O)[C@@H](N)CCSC)C(=O)N[C@H](C(=O)N[C@@H](Cc1ccccc1)C(=O)N[C@@H](CCC(N)=O)C(=O)O)C(C)C [compound 46] (H-MMGMVFQ-OH) | 100
CSCC[C@H](NC(=O)CNC(=O)[C@H](CCSC)NC(=O)[C@@H](N)CCSC)C(=O)N[C@H](C(=O)N[C@@H](Cc1ccccc1)C(=O)N[C@@H](CCC(N)=O)C(=O)N[C@@H](CO)C(=O)O)C(C)C [compound 47] (H-MMGMVFQS-OH) | 86.1
CSCC[C@H](NC(=O)CNC(=O)[C@H](CCSC)NC(=O)[C@@H](N)CCSC)C(=O)N[C@H](C(=O)N[C@@H](Cc1ccccc1)C(=O)N[C@@H](CCC(N)=O)C(=O)N[C@@H](CO)C(=O)N[C@@H](CC(C)C)C(=O)O)C(C)C [compound 48] (H-MMGMVFQSL-OH) | 92
CSCC[C@H](NC(=O)CNC(=O)[C@H](CCSC)NC(=O)[C@H](CCSC)NC(=O)[C@@H](N)CCCNC(=N)N)C(=O)N[C@H](C(=O)N[C@@H](Cc1ccccc1)C(=O)O)C(C)C [compound 50] (H-RMMGMVF-OH) | 87.7
CSCC[C@H](NC(=O)CNC(=O)[C@H](CCSC)NC(=O)[C@H](CCSC)NC(=O)[C@@H](N)CCCNC(=N)N)C(=O)N[C@H](C(=O)N[C@@H](Cc1ccccc1)C(=O)N[C@@H](CCC(N)=O)C(=O)O)C(C)C [compound 51] (H-RMMGMVFQ-OH) | 100
CSCC[C@H](NC(=O)CNC(=O)[C@H](CCSC)NC(=O)[C@H](CCSC)NC(=O)[C@@H](N)CCCNC(=N)N)C(=O)N[C@H](C(=O)N[C@@H](Cc1ccccc1)C(=O)N[C@@H](CCC(N)=O)C(=O)N[C@@H](CO)C(=O)O)C(C)C [compound 52] (H-RMMGMVFQS-OH) | 97.5
CSCC[C@H](NC(=O)CNC(=O)[C@H](CCSC)NC(=O)[C@H](CCSC)NC(=O)[C@@H](N)CCCNC(=N)N)C(=O)N[C@H](C(=O)N[C@@H](Cc1ccccc1)C(=O)N[C@@H](CCC(N)=O)C(=O)N[C@@H](CO)C(=O)N[C@@H](CC(C)C)C(=O)O)C(C)C [compound 53] (H-RMMGMVFQSL-OH) | 85.8
CSCC[C@H](NC(=O)CNC(=O)[C@H](CCSC)NC(=O)[C@H](CCSC)NC(=O)[C@H](CCCNC(=N)N)NC(=O)[C@@H](N)CCCNC(=N)N)C(=O)O [compound 55] (H-RRMMGM-OH) | 100
CSCC[C@H](NC(=O)CNC(=O)[C@H](CCSC)NC(=O)[C@H](CCSC)NC(=O)[C@H](CCCNC(=N)N)NC(=O)[C@@H](N)CCCNC(=N)N)C(=O)N[C@H](C(=O)O)C(C)C [compound 56] (H-RRMMGMV-OH) | 92.1
CSCC[C@H](NC(=O)CNC(=O)[C@H](CCSC)NC(=O)[C@H](CCSC)NC(=O)[C@H](CCCNC(=N)N)NC(=O)[C@@H](N)CCCNC(=N)N)C(=O)N[C@H](C(=O)N[C@@H](Cc1ccccc1)C(=O)O)C(C)C [compound 57] (H-RRMMGMVF-OH) | 91.9
CSCC[C@H](NC(=O)CNC(=O)[C@H](CCSC)NC(=O)[C@H](CCSC)NC(=O)[C@H](CCCNC(=N)N)NC(=O)[C@@H](N)CCCNC(=N)N)C(=O)N[C@H](C(=O)N[C@@H](Cc1ccccc1)C(=O)N[C@@H](CCC(N)=O)C(=O)O)C(C)C [compound 58] (H-RRMMGMVFQ-OH) | 69.5
CSCC[C@H](NC(=O)CNC(=O)[C@H](CCSC)NC(=O)[C@H](CCSC)NC(=O)[C@H](CCCNC(=N)N)NC(=O)[C@@H](N)CCCNC(=N)N)C(=O)N[C@H](C(=O)N[C@@H](Cc1ccccc1)C(=O)N[C@@H](CCC(N)=O)C(=O)N[C@@H](CO)C(=O)O)C(C)C [compound 59] (H-RRMMGMVFQS-OH) | 62.9
CSCC[C@H](NC(=O)CNC(=O)[C@H](CCSC)NC(=O)[C@H](CCSC)NC(=O)[C@H](CCCNC(=N)N)NC(=O)[C@@H](N)CCCNC(=N)N)C(=O)N[C@H](C(=O)N[C@@H](Cc1ccccc1)C(=O)N[C@@H](CCC(N)=O)C(=O)N[C@@H](CO)C(=O)N[C@@H](CC(C)C)C(=O)O)C(C)C [compound 60] (H-RRMMGMVFQSL-OH) | 95
CSCC[C@H](NC(=O)CNC(=O)[C@H](CCSC)NC(=O)[C@H](CCSC)NC(=O)[C@H](CCCNC(=N)N)NC(=O)[C@@H](N)CCCNC(=N)N)C(=O)N[C@H](C(=O)N[C@@H](Cc1ccccc1)C(=O)N[C@@H](CCC(N)=O)C(=O)N[C@@H](CO)C(=O)N[C@@H](CC(C)C)C(=O)N[C@@H](CS)C(=O)NCC(=O)N[C@H](C)C(N)=O)C(C)C [compound 62] | 30.3

Source: patent publication US20230218710A1, “METHOD OF TREATING CORONAVIRUS INFECTIONS” (priority 2020, published 2023)
